The values below come from US9533985B2, “Sulfonamide derivative and medicinal use thereof” (EA Pharma Co., Ltd., priority 2012, dated 2017).

Holding throughout (format): cell-based
Assay [1] has as its target T1, α4β7 integrin (Homo sapiens (Human), UniProt P13612+P26010). The assay can be described thus: MAdCAM-1/α4β7 integrin binding inhibitory activity evaluation test (RPMI-8866 cell adhesion to MAdCAM-1/Fc). The following applies: for Selectivity: IC50 in VCAM-1/α4β1 test divided by IC50 in MAdCAM-1/α4β7 test; for IC50: RPMI-8866 cells binding to recombinant mouse MAdCAM-1/Fc, no serum. The procedure, abridged: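 Human RPMI-8866 cells (α4β7+) adhered for 15–60 min at 30 °C to plates coated with recombinant mouse MAdCAM-1/Fc, in DMEM binding buffer with 4 mM MnCl2 and test compound. Bound cells were quantified via LDH activity (A490) after lysis. IC50 is the 50% inhibition of binding relative to compound-free wells.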

The target in assay [2] is T1, α4β7 integrin. The assay can be described thus: MAdCAM-1/α4β7 integrin binding inhibitory activity evaluation test in the presence of serum (1). The following applies: RPMI-8866 cells binding to mouse MAdCAM-1/Fc, human serum at final concentration of 50%; read-out: α4β7 with serum added, IC50. The procedure, abridged: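 Plates were coated with recombinant mouse MAdCAM-1/Fc (1 μg/mL, pH 9.6). Human RPMI-8866 B cells (α4β7-expressing) bound for 15–60 min at 30 °C in DMEM/HEPES/BSA with 4 mM MnCl2 and 50% human serum, with test substance present. Bound cells were quantified by LDH absorbance at 490 nm, run in duplicate, and IC50 was calculated relative to no-compound wells.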

Assay [3] concerns the target α4β1 integrin (Homo sapiens (Human), UniProt P05556+P13612). The assay can be described thus: VCAM-1/α4β1 integrin binding inhibitory activity evaluation test (Jurkat cell adhesion to VCAM-1/Fc). The following applies: Jurkat cells binding to recombinant human VCAM-1/Fc. The procedure, abridged:
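Jurkat cells (5×10^5/well) added with compounds to plates coated with recombinant human VCAM-1/Fc (1 μg/mL coating), in DMEM binding buffer with 40 mM HEPES, 0.2% BSA and 4 mM MnCl2, 15-60 min at 30° C. Bound cells lysed and quantified by LDH absorbance at 490 nm; IC50 relative to compound-free wells, in duplicate.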

T1 sequence (P13612 34-1032): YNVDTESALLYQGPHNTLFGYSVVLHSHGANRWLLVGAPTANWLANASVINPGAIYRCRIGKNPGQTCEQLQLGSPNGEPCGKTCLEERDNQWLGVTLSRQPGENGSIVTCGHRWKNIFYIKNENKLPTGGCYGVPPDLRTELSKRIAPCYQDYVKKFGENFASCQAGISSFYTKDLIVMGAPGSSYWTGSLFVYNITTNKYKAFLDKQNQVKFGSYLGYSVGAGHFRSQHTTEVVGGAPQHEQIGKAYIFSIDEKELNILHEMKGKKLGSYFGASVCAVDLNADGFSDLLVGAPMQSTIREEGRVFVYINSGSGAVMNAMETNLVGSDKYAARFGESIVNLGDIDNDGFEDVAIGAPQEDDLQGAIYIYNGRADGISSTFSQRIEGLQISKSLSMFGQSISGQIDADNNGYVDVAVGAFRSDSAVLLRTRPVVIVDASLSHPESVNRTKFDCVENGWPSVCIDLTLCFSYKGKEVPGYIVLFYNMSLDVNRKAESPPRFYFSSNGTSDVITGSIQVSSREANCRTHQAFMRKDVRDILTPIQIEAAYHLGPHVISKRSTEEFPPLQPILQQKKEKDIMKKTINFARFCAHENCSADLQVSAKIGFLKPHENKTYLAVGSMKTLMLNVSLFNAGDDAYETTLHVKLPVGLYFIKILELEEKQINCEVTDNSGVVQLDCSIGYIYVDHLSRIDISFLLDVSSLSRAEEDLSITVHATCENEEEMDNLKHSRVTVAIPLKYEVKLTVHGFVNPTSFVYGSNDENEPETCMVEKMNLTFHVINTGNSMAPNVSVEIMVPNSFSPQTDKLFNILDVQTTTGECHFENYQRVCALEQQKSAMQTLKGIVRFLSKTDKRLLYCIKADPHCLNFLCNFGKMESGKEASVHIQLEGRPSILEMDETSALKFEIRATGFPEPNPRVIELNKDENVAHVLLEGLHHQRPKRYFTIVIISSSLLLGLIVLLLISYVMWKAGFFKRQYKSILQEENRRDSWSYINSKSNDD
T1 sequence (P26010 20-798): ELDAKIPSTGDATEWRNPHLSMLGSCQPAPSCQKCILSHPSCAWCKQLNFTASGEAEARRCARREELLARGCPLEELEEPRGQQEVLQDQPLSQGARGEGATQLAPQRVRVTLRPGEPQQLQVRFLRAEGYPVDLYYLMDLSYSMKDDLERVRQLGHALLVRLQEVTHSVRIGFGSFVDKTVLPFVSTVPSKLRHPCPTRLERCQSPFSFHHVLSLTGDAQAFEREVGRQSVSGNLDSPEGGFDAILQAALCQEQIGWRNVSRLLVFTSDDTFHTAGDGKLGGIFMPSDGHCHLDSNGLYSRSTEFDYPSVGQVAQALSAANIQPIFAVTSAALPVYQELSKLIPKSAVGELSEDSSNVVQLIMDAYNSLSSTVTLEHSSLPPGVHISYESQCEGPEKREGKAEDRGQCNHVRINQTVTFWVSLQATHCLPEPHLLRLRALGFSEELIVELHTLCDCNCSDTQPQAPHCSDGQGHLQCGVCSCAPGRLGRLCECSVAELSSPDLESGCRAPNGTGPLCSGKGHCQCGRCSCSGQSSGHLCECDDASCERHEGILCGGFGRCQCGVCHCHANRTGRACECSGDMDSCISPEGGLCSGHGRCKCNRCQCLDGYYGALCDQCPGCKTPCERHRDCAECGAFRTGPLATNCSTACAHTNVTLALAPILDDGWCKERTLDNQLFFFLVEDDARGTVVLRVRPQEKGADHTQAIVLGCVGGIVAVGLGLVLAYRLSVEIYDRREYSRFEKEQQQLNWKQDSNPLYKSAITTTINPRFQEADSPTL
Sequence of α4β1 integrin (P13612 34-1032): as the sequence (P13612 34-1032) above
Sequence of α4β1 integrin (P05556 21-798): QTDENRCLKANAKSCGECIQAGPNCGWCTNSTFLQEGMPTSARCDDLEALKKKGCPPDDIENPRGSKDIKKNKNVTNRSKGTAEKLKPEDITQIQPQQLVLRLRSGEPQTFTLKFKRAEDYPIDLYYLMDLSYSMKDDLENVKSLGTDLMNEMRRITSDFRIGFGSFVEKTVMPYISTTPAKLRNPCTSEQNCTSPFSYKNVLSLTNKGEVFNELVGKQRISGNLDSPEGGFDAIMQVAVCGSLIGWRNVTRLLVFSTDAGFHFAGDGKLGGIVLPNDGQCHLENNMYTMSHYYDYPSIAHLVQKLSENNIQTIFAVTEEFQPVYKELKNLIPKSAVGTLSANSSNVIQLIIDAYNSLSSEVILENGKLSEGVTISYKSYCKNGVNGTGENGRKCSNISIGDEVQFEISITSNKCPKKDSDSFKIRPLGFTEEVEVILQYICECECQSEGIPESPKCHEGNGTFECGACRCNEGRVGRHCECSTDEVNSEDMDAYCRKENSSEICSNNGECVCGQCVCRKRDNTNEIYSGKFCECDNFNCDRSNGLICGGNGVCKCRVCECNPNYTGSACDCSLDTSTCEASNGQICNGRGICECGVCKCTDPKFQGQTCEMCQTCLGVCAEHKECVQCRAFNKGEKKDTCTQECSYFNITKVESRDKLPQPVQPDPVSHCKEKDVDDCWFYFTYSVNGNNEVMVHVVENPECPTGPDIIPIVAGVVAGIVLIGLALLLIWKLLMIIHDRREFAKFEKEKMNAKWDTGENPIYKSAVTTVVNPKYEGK

In turn, `Cn1ccc(=O)n(-c2ccc(C[C@H](NC(=O)c3c(F)cc(NS(=O)(=O)c4ccc(-n5ccnn5)cn4)cc3F)C(=O)O)cc2)c1=O` [Example 73, N-[2,6-Difluoro-4-({[5-(1H-1,2,3-triazol-1-yl)pyridin-2-yl]sulfonyl}amino)benzoyl]-4-(3-methyl-2,6-dioxo-3,6-dihydropyrimidin-1(2H)-yl)-L-phenylalanine] returned a Selectivity in assay [1] of 430. In addition, the IC50 in assay [1] turned out to be 0.95 nM; in assay [2], 6.5 nM; in assay [3] it was 410 nM.
The matching figures for `COc1ccc2c(c1)c(=O)n(-c1ccc(C[C@H](NC(=O)c3c(F)cc(NS(=O)(=O)c4ccc(C(=O)NC5CC5)cc4)cc3F)C(=O)O)cc1)c(=O)n2C` [Example 78, N-{4-[({4-[(Cyclopropylamino)carbonyl]phenyl}sulfonyl)amino]-2,6-difluorobenzoyl}-4-(6-methoxy-1-methyl-2,4-dioxo-1,4-dihydroquinazolin-3(2H)-yl)-L-phenylalanine]: 470, 0.79 nM, 19 nM and 370 nM.
`Cc1ccc(-c2ccc(S(=O)(=O)Nc3cc(F)c(C(=O)N[C@@H](Cc4ccc(-n5c(=O)c6ccncc6n(C)c5=O)cc4)C(=O)O)c(F)c3)cc2)cn1` [Example 50, N-[2,6-Difluoro-4-({[4-(6-methylpyridin-3-yl)phenyl]sulfonyl}amino)benzoyl]-4-(1-methyl-2,4-dioxo-1,4-dihydropyrido[3,4-d]pyrimidin-3(2H)-yl)-L-phenylalanine] yielded a Selectivity in assay [1] of 560. Further, the IC50 came to 0.32 nM in assay [1], 19 nM in assay [2] and 180 nM in assay [3].
As to `Cn1ccc(=O)n(-c2ccc(C[C@H](NC(=O)c3c(F)cc(NS(=O)(=O)c4ccc(-n5cncn5)cn4)cc3F)C(=O)O)cc2)c1=O` [Example 56, N-[2,6-Difluoro-4-({[5-(1H-1,2,4-triazol-1-yl)pyridin-2-yl]sulfonyl}amino)benzoyl]-4-(3-methyl-2,6-dioxo-3,6-dihydropyrimidin-1(2H)-yl)-L-phenylalanine], the Selectivity in assay [1] worked out at 80. Further, the half-maximal inhibitory concentration (IC50) came out at 2 nM in assay [1], 5.4 nM in assay [2] and 160 nM in assay [3].
As for `CCNC(=O)c1ccc(S(=O)(=O)Nc2cc(F)c(C(=O)N[C@@H](Cc3ccc(-n4c(=O)ccn(C)c4=O)cc3)C(=O)O)c(F)c2)cc1` [Example 44, N-{4-[({4-[(Ethylamino)carbonyl]phenyl}sulfonyl)amino]-2,6-difluorobenzoyl}-4-(3-methyl-2,6-dioxo-3,6-dihydropyrimidin-1(2H)-yl)-L-phenylalanine], the Selectivity in assay [1] is reported as 260. In addition, the IC50 in assay [1] came out at 0.62 nM; in assay [2], 16 nM; in assay [3], 160 nM.
For the compound `Cn1ccc(=O)n(-c2ccc(C[C@H](NC(=O)c3c(F)cc(NS(=O)(=O)c4ccc(-c5ncccn5)cn4)cc3F)C(=O)O)cc2)c1=O` [Example 40, N-(2,6-Difluoro-4-{[(5-pyrimidin-2-yl-pyridin-2-yl)sulfonyl]amino}benzoyl)-4-(3-methyl-2,6-dioxo-3,6-dihydropyrimidin-1(2H)-yl)-L-phenylalanine], the Selectivity in assay [1] turned out to be 290. Moreover, the IC50 was 0.73 nM in assay [1], 8.7 nM in assay [2] and 210 nM in assay [3].

In general, IC50 refers to the concentration needed to halve the response being measured.
